The values below are quoted from earlier work in patent US20040266650A1, “Washing and/or cleaning article” (priority 2001, published 2004).

What is called Solubility is the dissolved amount per volume that the medium holds.

Values after ≈ are worked out from the molar mass of the structure shown. Like-named read-outs stand apart in the source and are kept apart here.

Consider `[Cl-].[Cl-].[Zn+2]` [Zinc chloride], for which the Solubility (Table 2, in water at 20° C.) was 3680 mg/mL.
For `NC(N)=O` [Urea], the Solubility (Table 2, in water at 20° C.) was 1080 mg/mL (≈ 18000 mM).
Turning to Sodium polyphosphate, the Solubility (Table 2, in water at 20° C.) is 1000 mg/mL and the Solubility (Table 3, in water, no temperature printed (Table 2: 20° C.)) is 1000 mg/mL.
For `[Cl-].[Cs+]` [Cesium chloride], the Solubility (Table 2, in water at 20° C.) was 1800 mg/mL.
For `O=C(O)CC(O)C(=O)O` (racemic) [DL-Malic acid], the Solubility runs as follows: (Table 2, in water at 26° C.) 1440 mg/mL (≈ 10700 mM); (Table 3, in water at 26° C.) 1440 mg/mL (≈ 10700 mM).
`[Cl-].[K+]` [Potassium chloride]: under “Table 2, in water at 20° C.”, the Solubility was 340 mg/mL.
For the compound `O=C(CO)[C@@H](O)[C@H](O)[C@@H](O)CO` [L-(−)-Sorbose], the Solubility (Table 2, in water at 17° C.) was 550 mg/mL (≈ 3050 mM).
With `O=C[C@H](O)[C@@H](O)[C@@H](O)[C@H](O)CO` [D(+)-Galactose], the Solubility (Table 2, in water at 25° C.) was 680 mg/mL (≈ 3770 mM).
Consider `O=C(O)/C=C\C(=O)O` [Maleic acid], for which the Solubility runs as follows: (Table 2, in water at 25° C.) 788 mg/mL (≈ 6790 mM); (Table 3, in water at 25° C.) 788 mg/mL (≈ 6790 mM).
